Strand notation (5' to 3'): a small letter for the sugar, then the base; units joined by * are phosphorothioate-linked, units joined directly phosphodiester-linked; [ ] holds rarer units or linkages, { } end groups; capitals alone tell only the bases. k = constrained ethyl (cEt); [5mC] = 5-methylcytosine; d = 2'-deoxy (DNA)
system: Yap1 mRNA; assay: Antisense inhibition of human Yap1 in A-431 cells by cEt gapmers, single dose (Example 2, RTS4814); assay type: cell-based; details: A-431 cells, 5,000 cells per well, free uptake, 2,000 nM modified oligonucleotide, approx. 48 hours, RTS4814, normalized to RIBOGREEN; Table 4; asterisk (*) = targets amplicon region of primer probe set
Outline: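 A-431 cells (5,000/well) received 2,000 nM oligonucleotide by free uptake for about 48 h. Yap1 mRNA was then quantified by RT-qPCR with primer probe set RTS4814, normalized to RIBOGREEN total RNA, and reported as % of untreated control; asterisked values mark oligos inside the amplicon.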

Row | Substance | YAP1 (% UTC)
1 | 716364 (k[5mC]*kG*k[5mC]*d[5mC]*dG*d[5mC]*dG*dG*dG*dT*dG*d[5mC]*d[5mC]*kG*kG*kT; antisense) [Compound 716364] | 110
2 | 716370 (k[5mC]*kA*kG*dT*dG*d[5mC]*d[5mC]*dT*dG*d[5mC]*dA*dT*d[5mC]*kA*kG*kT; antisense) [Compound 716370] | 25

same assay, conditions: Table 5; A-431 cells, 5,000 cells per well, free uptake, 2,000 nM modified oligonucleotide, approx. 48 hours; RTS4814; normalized to RIBOGREEN; Yap1 mRNA relative to untreated control cells

Row | Substance | YAP1 (% UTC)
3 | 716359 (k[5mC]*k[5mC]*k[5mC]*d[5mC]*dT*dG*dA*d[5mC]*d[5mC]*d[5mC]*dA*dG*dG*k[5mC]*kG*kA; antisense) [Compound 716359] | 101
4 | 716485 (kA*k[5mC]*kT*dA*d[5mC]*d[5mC]*dA*dA*dT*dA*dT*dA*d[5mC]*kA*kT*kT; antisense) [Compound 716485] | 84
5 | 716497 (kA*kG*k[5mC]*dA*dG*d[5mC]*dT*dT*dT*dT*dG*d[5mC]*d[5mC]*kA*kG*kG; antisense) [Compound 716497] | 65
6 | 716536 (antisense kA*kA*kG*dT*dA*dG*dA*dT*d[5mC]*dT*dA*dA*dG*kA*kA*kG) [Compound 716536] | 94

same assay, conditions: Table 6; A-431 cells, 5,000 cells per well, free uptake, 2,000 nM modified oligonucleotide, approx. 48 hours; RTS4814; normalized to RIBOGREEN; Yap1 mRNA relative to untreated control cells

Row | Substance | YAP1 (% UTC)
7 | 716459 (k[5mC]*kG*k[5mC]*dT*dA*d[5mC]*d[5mC]*dA*dT*dT*dT*dT*dA*kA*kA*kA; antisense) [Compound 716459] | 121
8 | 716402 (kA*kT*kT*dT*dT*dG*dA*dG*dT*d[5mC]*d[5mC]*d[5mC]*dA*k[5mC]*k[5mC]*kA; antisense) [Compound 716402] | 85
9 | 716462 (kT*kT*kA*dA*dA*d[5mC]*dT*dA*d[5mC]*d[5mC]*dA*dG*dT*kG*kA*kA; antisense) [Compound 716462] | 86
10 | 716474 (kT*kA*kA*dA*dT*dG*dA*dA*dG*dG*dT*dA*dA*kA*k[5mC]*k[5mC]; antisense) [Compound 716474] | 120

same assay, conditions: Table 18; A-431 cells, 5,000 cells per well, free uptake, 2,000 nM modified oligonucleotide, approx. 48 hours; RTS4814; normalized to RIBOGREEN; Yap1 mRNA as percent of untreated control

Row | Substance | YAP1 (% UTC)
11 | 1074340 (antisense kT*k[5mC]*k[5mC]*d[5mC]*dG*dG*dG*dA*dG*dA*dA*dG*dA*k[5mC]*kA*k[5mC]) [Compound 1074340] | 120
12 | 1074980 (antisense kT*kA*kT*dT*dG*d[5mC]*d[5mC]*dA*dG*dT*dT*d[5mC]*dT*kT*kG*kT) [Compound 1074980] | 26
13 | 1076004 (kT*kA*kA*dT*dT*dT*dA*dA*dT*dG*dG*d[5mC]*dT*kT*kG*k[5mC]; antisense) [Compound 1076004] | 2
14 | 1075492 (antisense kG*k[5mC]*kT*dA*dA*dA*dA*dT*dG*dA*dT*dA*d[5mC]*kT*kT*k[5mC]) [Compound 1075492] | 29

same assay, conditions: Table 19; A-431 cells, 5,000 cells per well, free uptake, 2,000 nM modified oligonucleotide, approx. 48 hours; RTS4814; normalized to RIBOGREEN; Yap1 mRNA as percent of untreated control

Row | Substance | YAP1 (% UTC)
15 | 1076357 (kT*k[5mC]*k[5mC]*dA*dA*dA*dA*dA*d[5mC]*dT*dT*d[5mC]*dT*kT*kA*kG; antisense) [Compound 1076357] | 22
16 | 1074693 (antisense k[5mC]*k[5mC]*k[5mC]*d[5mC]*d[5mC]*d[5mC]*d[5mC]*d[5mC]*dA*dA*dA*d[5mC]*dT*kT*kT*k[5mC]) [Compound 1074693] | 92
17 | 1075621 (kG*kA*kT*dT*dA*dA*d[5mC]*dA*dT*dT*dG*dA*dT*kA*k[5mC]*kT; antisense) [Compound 1075621] | 61
18 | 1076133 (k[5mC]*kA*kT*dA*d[5mC]*dT*dA*dA*dT*dT*dT*dG*dG*kT*kA*kA; antisense) [Compound 1076133] | 60
19 | 1075045 (antisense kA*kA*kA*dT*dT*dA*dG*dA*d[5mC]*dT*d[5mC]*d[5mC]*d[5mC]*k[5mC]*k[5mC]*kA) [Compound 1075045] | 18

same assay, conditions: Table 20; Yap1 mRNA, percent of untreated control; 3-10-3 cEt gapmers targeting SEQ ID NO.: 1 and 2

Row | Substance | YAP1 (% UTC)
20 | 1076102 (k[5mC]*kT*kT*dA*dA*d[5mC]*dA*dA*dA*dT*d[5mC]*dA*dG*k[5mC]*k[5mC]*k[5mC]; antisense) [Compound 1076102] | 32
21 | 1075494 (antisense kT*k[5mC]*kT*d[5mC]*dA*dA*d[5mC]*dA*dA*dT*dT*dT*dG*k[5mC]*kT*kA) [Compound 1075494] | 47
22 | 1074150 (antisense kG*kG*k[5mC]*d[5mC]*dG*dA*dG*dG*dT*dG*dG*dA*dG*kA*kA*kG) [Compound 1074150] | 85

same assay, conditions: Table 21; Yap1 mRNA, percent of untreated control; 3-10-3 cEt gapmers targeting SEQ ID NO.: 1 and 2

Row | Substance | YAP1 (% UTC)
23 | 1075143 (antisense k[5mC]*k[5mC]*kT*dT*dA*dT*dT*dA*dG*dT*d[5mC]*dA*dG*kT*kT*k[5mC]) [Compound 1075143] | 2
24 | 1076231 (kT*kT*kA*dG*dA*dA*dA*dT*dG*dG*dA*d[5mC]*dT*kG*kG*kG; antisense) [Compound 1076231] | 16
25 | 1075495 (antisense k[5mC]*kT*kT*dA*dA*dT*dT*dG*dG*dT*dA*dA*d[5mC]*kT*kG*kA) [Compound 1075495] | 19
26 | 1076071 (kT*kA*kT*dT*dA*dG*dT*dA*dA*dT*dG*d[5mC]*dA*k[5mC]*kA*kG; antisense) [Compound 1076071] | 14
27 | 1075911 (kT*kG*kA*d[5mC]*dA*dA*dA*dA*d[5mC]*dA*dG*dG*d[5mC]*kA*k[5mC]*k[5mC]; antisense) [Compound 1075911] | 41
28 | 1075591 (kG*kT*kA*dA*dT*dA*dA*dT*d[5mC]*dA*d[5mC]*d[5mC]*dT*kT*kA*k[5mC]; antisense) [Compound 1075591] | 76

same assay, conditions: Table 22; Yap1 mRNA as percent of untreated control; 3-10-3 cEt gapmers; single dose

Row | Substance | YAP1 (% UTC)
29 | 1074984 (antisense kA*kT*k[5mC]*dA*d[5mC]*d[5mC]*dT*dT*dT*dT*dA*dT*dT*kG*k[5mC]*k[5mC]) [Compound 1074984] | 31
30 | 1076296 (kT*kA*kT*dA*dA*dA*dG*dA*d[5mC]*d[5mC]*d[5mC]*dA*dA*kT*kG*k[5mC]; antisense) [Compound 1076296] | 68
31 | 1075624 (kA*kT*k[5mC]*dT*dA*dT*dA*dA*d[5mC]*d[5mC]*d[5mC]*dT*dT*kA*kT*kT; antisense) [Compound 1075624] | 91
32 | 1075752 (k[5mC]*kA*kT*dA*dA*dT*dT*dA*dT*dA*d[5mC]*dT*dG*kA*kT*k[5mC]; antisense) [Compound 1075752] | 19
33 | 1075848 (kG*kA*kT*dT*dA*d[5mC]*dA*dA*dT*dG*dG*dG*d[5mC]*kA*kG*kT; antisense) [Compound 1075848] | 9

same assay, conditions: Table 23; Yap1 mRNA as percent of untreated control; 3-10-3 cEt gapmers; single dose

Row | Substance | YAP1 (% UTC)
34 | 1074601 (antisense k[5mC]*k[5mC]*kA*dG*d[5mC]*dT*dA*dA*d[5mC]*dT*d[5mC]*dA*dA*kA*kA*k[5mC]) [Compound 1074601] | 24

same assay, conditions: Table 24; Yap1 mRNA as percent of untreated control; 3-10-3 cEt gapmers targeting SEQ ID NO.: 1, and 2

Row | Substance | YAP1 (% UTC)
35 | 1074666 (antisense k[5mC]*kA*kT*dA*dT*dA*d[5mC]*d[5mC]*d[5mC]*dA*dA*dT*dT*kT*kT*kG) [Compound 1074666] | 16
36 | 1076298 (kG*kT*kT*dA*dT*dA*dA*dA*dG*dA*d[5mC]*d[5mC]*d[5mC]*kA*kA*kT; antisense) [Compound 1076298] | 10
37 | 1074794 (k[5mC]*kA*kA*dA*dT*d[5mC]*dA*dA*dT*dG*dT*dG*d[5mC]*kT*k[5mC]*k[5mC]; antisense) [Compound 1074794] | 5

same assay, conditions: Table 32; Yap1 mRNA, percent of untreated control; 3-10-3 cEt gapmers targeting SEQ ID NO.: 1, and 2

Row | Substance | YAP1 (% UTC)
38 | 1076082 (kT*k[5mC]*kT*d[5mC]*dA*dA*dT*dA*d[5mC]*dA*d[5mC]*dT*dA*kT*kA*kT; antisense) [compound 1076082] | 38

same assay, conditions: Table 33; Yap1 mRNA, percent of untreated control; 3-10-3 cEt gapmers targeting SEQ ID NO.: 1, and 2

Row | Substance | YAP1 (% UTC)
39 | 1076403 (antisense kA*kT*kT*dT*dA*dA*dG*dA*d[5mC]*d[5mC]*dT*dG*dG*kT*kG*kA) [compound 1076403] | 26
40 | 1076275 (kG*kT*kA*dT*dT*dA*dG*dA*dT*dA*dA*dA*dG*k[5mC]*kA*kG; antisense) [compound 1076275] | 10

same assay, conditions: Yap1 mRNA as percent of untreated control; A-431 cells; 3-10-3 cEt gapmers targeting SEQ ID NO.: 1, and 2; Table 30

Row | Substance | YAP1 (% UTC)
41 | 1074640 (antisense kG*k[5mC]*k[5mC]*dA*dA*dA*dA*dT*dA*d[5mC]*dT*dT*dA*kG*kA*kT) [compound 1074640] | 26
42 | 1075504 (k[5mC]*kT*kT*dA*dA*dA*dT*dG*dA*dG*dA*dG*dA*kA*k[5mC]*k[5mC]; antisense) [compound 1075504] | 71
43 | 1075408 (antisense k[5mC]*kT*kA*dA*dA*dA*dT*dG*dG*d[5mC]*dA*dT*dA*kA*kG*kG) [compound 1075408] | 23
44 | 1075952 (antisense k[5mC]*kT*kA*dT*dA*dT*dA*d[5mC]*d[5mC]*dT*dG*d[5mC]*dT*kT*k[5mC]*kT) [compound 1075952] | 41

same assay, conditions: Yap1 mRNA as percent of untreated control; A-431 cells; 3-10-3 cEt gapmers targeting SEQ ID NO.: 1, and 2; Table 31

Row | Substance | YAP1 (% UTC)
45 | 1074353 (antisense kG*kA*k[5mC]*dA*d[5mC]*dT*dG*dT*dA*dG*d[5mC]*dT*dG*k[5mC]*kT*k[5mC]) [compound 1074353] | 17
